Measured values as given in publication PMC7024208, “In Silico and In Vitro Experimental Studies of New Dibenz[b,e]oxepin-11(6H)one O-(arylcarbamoyl)-oximes Designed as Potential Antimicrobial Agents” (Molecules, 2020).

Key:
Test in all cases: Qualitative antimicrobial screening, adapted disk diffusion
B. subtilis ATCC 6633 = format: cell-based, Bacillus subtilis; conditions: Bacillus subtilis, ATCC6633; B. subtilis ATCC 6633, adapted diffusion assay; read-out: growth inhibition diameter
Procedure: (§1) The antimicrobial activities of the synthesized compounds were determined against ATCC reference and clinical microbial strains, i.e., Bacillus subtilis ATCC 6633, Staphylococcus aureus ATCC 25923, Escherichia coli ATCC 25922, Klebsiella pneumoniae 350, Pseudomonas aeruginosa 1671 and Candida albicans ATCC 10231, using as positive controls the antibiotic ticarcillin and the antifungal agent fluconazole. Microbial suspensions of 1.5 × 10^8 CFU/mL corresponding to 0.5 McFarland density obtained from 15–18 h bacterial cultures developed on solid media were used in our experiments. The antimicrobial activity was tested on Mueller-Hinton Agar (MHA) medium, while a Yeast Peptone Glucose (YPG) medium was used in case of C. albicans. The obtained compounds were solubilized in DMSO and the starting stock solution was of 5000 μg/mL concentration. The qualitative screening was performed by an adapted disk diffusion method as previously reported.

S. aureus ATCC 25923 = format: cell-based, Staphylococcus aureus; conditions: Staphylococcus aureus, ATCC25923; S. aureus ATCC 25923, adapted diffusion assay; read-out: growth inhibition diameter
Procedure: as §1

P. aeruginosa ATCC 27853 = format: cell-based; conditions: Pseudomonas aeruginosa, ATCC27853; P. aeruginosa ATCC 27853, adapted diffusion assay; read-out: growth inhibition diameter
K. pneumoniae 1771 = format: cell-based, Klebsiella pneumoniae; conditions: Klebsiella pneumoniae; K. pneumoniae 1771, adapted diffusion assay; read-out: growth inhibition diameter
C. albicans ATCC 10231 = format: cell-based, Candida albicans; conditions: Candida albicans, ATCC10231; C. albicans ATCC 10231, adapted diffusion assay; read-out: growth inhibition diameter
Procedure: as §1

E. coli ATCC 25922 = format: cell-based, Escherichia coli; conditions: Escherichia coli, ATCC25922; E. coli ATCC 25922, adapted diffusion assay; read-out: growth inhibition diameter
Procedure: as §1

Measured: zone of inhibition at 5000 µg/mL (stock)

O=C(Nc1ccc(Cl)cc1Cl)ON=C1c2ccccc2COc2ccccc21 [Compound 7e, 6,11-Dihydrodibenz[b,e]oxepin-11(6H)one O-(2,4-dichlorophenyl-carbamoyl)oxime]
0 mm: all assays above

CCc1ccc2c(c1)C(=NOC(=O)Nc1ccc(F)cc1)c1ccccc1CO2 [Compound 7i, 2-Ethyl-6,11-dihydro-dibenz[b,e]oxepin-11(6H)one O-(4-fluorophenyl-carbamoyl)oxime]
0 mm: all assays above

CCc1ccc2c(c1)C(=NOC(=O)Nc1ccccc1)c1ccccc1CO2 [Compound 7h, 2-Ethyl-6,11-dihydro-dibenz[b,e]oxepin-11(6H)one O-(phenyl-carbamoyl)oxime]
0 mm: all assays above

CCc1ccc2c(c1)C(=NOC(=O)Nc1ccc(Cl)cc1Cl)c1ccccc1CO2 [Compound 7j, 2-Ethyl-6,11-dihydro-dibenz[b,e]oxepin-11(6H)one O-(2,4-dichlorophenyl-carbamoyl)oxime]
0 mm: all assays above

Cc1ccc2c(c1)C(=NOC(=O)Nc1ccc(Cl)cc1Cl)c1ccccc1CO2 [Compound 7g, 2-Methyl-6,11-dihydro-dibenz[b,e]oxepin-11(6H)one O-(2,4-dichlorophenyl-carbamoyl)oxime]
0 mm: all assays above

O=C(Nc1ccc(Cl)cc1)ON=C1c2ccccc2COc2ccccc21 [Compound 7d, 6,11-Dihydrodibenz[b,e]oxepin-11(6H)one O-(4-chlorophenyl-carbamoyl)oxime]
0 mm: all assays above
